Results on one compound are retold here after patent US7166618B2, “Nitrosated and nitrosylated cyclooxygenase-2 inhibitors, compositions and methods of use” (NitroMed, Inc., priority 1999, dated 2007).

Structures are written as SMILES.

As a reminder, the inhibition is the relative decrease from the control value, in per cent. Read a low inhibition as a response near the control. What is called IC50 is the point on the concentration scale where inhibition reaches its midpoint.

One test concerns the target T1, ovine COX-1 (Ovis aries, UniProt P05979).
T1 sequence (P05979 25-600): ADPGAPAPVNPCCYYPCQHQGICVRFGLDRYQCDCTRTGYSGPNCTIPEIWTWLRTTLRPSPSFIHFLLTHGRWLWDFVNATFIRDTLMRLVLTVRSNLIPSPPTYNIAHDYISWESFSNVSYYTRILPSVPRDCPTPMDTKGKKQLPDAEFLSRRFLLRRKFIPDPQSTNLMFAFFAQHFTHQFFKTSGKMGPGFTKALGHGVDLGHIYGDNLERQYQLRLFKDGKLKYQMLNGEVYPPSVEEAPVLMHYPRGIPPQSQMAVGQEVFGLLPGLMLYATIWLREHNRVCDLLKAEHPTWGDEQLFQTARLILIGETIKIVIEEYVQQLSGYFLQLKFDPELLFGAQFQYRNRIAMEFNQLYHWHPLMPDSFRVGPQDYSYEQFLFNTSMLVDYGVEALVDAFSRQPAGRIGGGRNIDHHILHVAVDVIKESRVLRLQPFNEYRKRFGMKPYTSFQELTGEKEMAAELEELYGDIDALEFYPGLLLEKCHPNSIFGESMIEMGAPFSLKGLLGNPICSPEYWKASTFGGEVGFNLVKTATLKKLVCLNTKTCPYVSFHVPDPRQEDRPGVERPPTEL
The experiment in a line: biochemical. Here is the method: (§1) The ovine COX-1 and COX-2 activities and the measurement of the prostaglandin products synthesized were performed using the COX Inhibitor Screening Assay (Cayman Chemical, Ann Arbor, Mich., which also contained the Prostaglandin Screening EIA Kit, used for prostaglandin quantification). The test compounds were dissolved at 50 times the highest final reaction concentration in DMSO or any other suitable solvent as stock solutions. These stock solutions were then diluted in the same solvent. Eight glass test tubes (13×100 mm) were placed in a 37° C. water bath. To each test tube was added 950 μL of reaction buffer (0.1 M Tris-HCl, pH 8.0, containing 5 mM EDTA, and 2 mM phenol), 10 μL of 100 µM heme solution, and 10 μL (5 units) of either ovine COX-1 or COX-2 and the resulting mixture was incubated with the enzyme for 2 minutes. Twenty μL of the solvent was added to one tube (100% initial activity or solvent control) and 20 μL of each dilution of the test compound was added to one tube each. Each tube was vortexed immediately after the addition. The enzyme was incubated with the inhibitor for 3.5 minutes at 37° C. The enzymatic reaction was then initiated by the addition of 10 μL of freshly prepared 10 mM arachidonic acid (neutralized with KOH), vortexed and then incubated for 2 minutes at 37° C. The reaction was terminated by the addition of 50 μL of 1 M HCl, vortexed and placed at room temperature. One hundred microliters of a saturated stannous chloride solution (50 mg/mL of 0.1 M HCl) was added and the reaction mixture was allowed to stand at room temperature for at least 5 minutes.
(§2) The prostaglandins (PG) produced in the reactions were assayed, after a 2,000-fold dilution, using the Prostaglandin Screening EIA Kit (Cayman Chemical, Ann Arbor, Mich.). The assay-contains an antibody with broad specificity for all the prostaglandin families (PGF, PGE, PGD, and thromboxane B-type) synthesized in the COX-1/COX 2 reactions. The synthesized prostaglandin competes with a PG-tagged acetylcholine esterase tracer for binding to the PG antibody. Binding of synthesized PG lowers the calorimetric development of the Ellman's Reagent (computed as % B/B0). The actual amount of synthesized PG was interpolated from a standard curve using known amounts of supplied prostaglandin E2 (PGE2) (PGE2 concentration vs. % B/B0). The data generated were the mean±standard deviation of triplicate wells in the EIA for a single reaction at a given inhibitor concentration.

A further test concerns the target T2, ovine COX-2 (Ovis aries, UniProt P79208).
T2 sequence (P79208 17-603): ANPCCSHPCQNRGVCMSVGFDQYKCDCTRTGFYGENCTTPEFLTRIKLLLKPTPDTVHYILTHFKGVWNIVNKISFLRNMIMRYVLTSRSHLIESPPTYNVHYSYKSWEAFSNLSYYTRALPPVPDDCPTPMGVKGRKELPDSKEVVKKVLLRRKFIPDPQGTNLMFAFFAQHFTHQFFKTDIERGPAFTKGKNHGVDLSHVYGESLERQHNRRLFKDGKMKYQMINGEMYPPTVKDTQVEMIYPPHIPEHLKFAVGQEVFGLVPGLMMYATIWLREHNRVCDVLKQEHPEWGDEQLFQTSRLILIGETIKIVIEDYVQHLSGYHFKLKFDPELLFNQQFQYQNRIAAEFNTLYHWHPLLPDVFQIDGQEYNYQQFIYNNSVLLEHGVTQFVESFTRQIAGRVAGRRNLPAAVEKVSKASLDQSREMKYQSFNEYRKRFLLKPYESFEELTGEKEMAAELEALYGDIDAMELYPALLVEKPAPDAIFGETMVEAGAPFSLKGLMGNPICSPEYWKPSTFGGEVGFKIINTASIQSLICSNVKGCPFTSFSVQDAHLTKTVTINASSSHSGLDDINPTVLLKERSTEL
Description: biochemical. In kind it is biochemical. Here is the method: as §1, §2

As to `NS(=O)(=O)c1ccc(-c2c(-c3ccccc3)noc2CO[N+](=O)[O-])cc1` [Example 2b, 4-(5-((Nitrooxy)methyl)-3-phenylisoxazol-4-yl)benzenesulfonamide], at ovine COX-1 (Ovine COX-1 (footnote a), at 100 μM), testing at 100 µM gave an inhibition of 0%. In addition, the IC50 was > 300000 nM against ovine COX-1 (ovine COX-1) and 1200 nM on ovine COX-2.
